The NIST ThermoML archive (doi:10.1016/j.jct.2017.06.001)
Numbers after ± are expanded uncertainties.

Assay: xn = mol fraction of the nth substance listed
Details: 293.15 K, 100 kPa, Liquid; for speed of sound: Frequency=5 MHz, Pulse-echo method; for mass density: Vibrating tube method

OCCCCCO [1,5-pentanediol] + O
Details | mass density [kg/m3] | speed of sound [m/s]
x1 = 0.005 | 997.92 ± 0.53 | –
x1 = 0.0101 | 997.99 ± 1 | –
x1 = 0.0196 | 998.58 ± 1 | –
x1 = 0.0251 | 999.15 ± 1 | –
x1 = 0.0304 | 999.8 ± 1 | –
x1 = 0.05 | 1001.74 ± 1 | –
x1 = 0.0769 | 1003.5 ± 1.1 | –
x1 = 0.1002 | 1004.72 ± 1.1 | –
x1 = 0.1438 | 1005.61 ± 1.1 | –
x1 = 0.1548 | – | 1691.8 ± 1.3
x1 = 0.1602 | – | 1692.6 ± 1.3
x1 = 0.1649 | – | 1693.2 ± 1.3
x1 = 0.1671 | – | 1693.5 ± 1.3
x1 = 0.1718 | – | 1694 ± 1.3
x1 = 0.1738 | – | 1694.1 ± 1.3
x1 = 0.1776 | – | 1694.5 ± 1.3
x1 = 0.1807 | – | 1694.7 ± 1.3
x1 = 0.1845 | 1005.62 ± 1.1 | –
x1 = 0.1846 | – | 1694.9 ± 1.3
x1 = 0.1875 | – | 1695.1 ± 1.3
x1 = 0.19 | – | 1695.2 ± 1.3
x1 = 0.1941 | – | 1695.4 ± 1.3
x1 = 0.1964 | – | 1695.5 ± 1.3
x1 = 0.2006 | – | 1695.5 ± 1.3
x1 = 0.2029 | – | 1695.6 ± 1.3
x1 = 0.2051 | – | 1695.6 ± 1.3
x1 = 0.2087 | – | 1695.7 ± 1.3
x1 = 0.2114 | – | 1695.7 ± 1.3
x1 = 0.2217 | – | 1695.6 ± 1.3
x1 = 0.2315 | – | 1695.4 ± 1.3
x1 = 0.2384 | – | 1695.2 ± 1.3
x1 = 0.246 | – | 1695 ± 1.3
x1 = 0.2503 | 1004.77 ± 1.2 | –
x1 = 0.2552 | – | 1694.6 ± 1.4
x1 = 0.2648 | – | 1694.1 ± 1.4
x1 = 0.2739 | – | 1693.7 ± 1.4
x1 = 0.2857 | – | 1693 ± 1.4
x1 = 0.2983 | – | 1692.1 ± 1.4
x1 = 0.3 | 1003.78 ± 1.2 | –
x1 = 0.3133 | – | 1691.1 ± 1.4
x1 = 0.3287 | – | 1689.9 ± 1.4
x1 = 0.3343 | 1003.14 ± 1.3 | –
x1 = 0.3552 | – | 1687.7 ± 1.4
x1 = 0.3729 | – | 1686.1 ± 1.5
x1 = 0.4002 | – | 1683.5 ± 1.5
x1 = 0.4171 | 1001.32 ± 1.4 | –
x1 = 0.4241 | – | 1681 ± 1.5
x1 = 0.4527 | – | 1677.7 ± 1.6
x1 = 0.454 | 1000.44 ± 1.4 | –
x1 = 0.478 | – | 1674.7 ± 1.6
x1 = 0.5024 | – | 1671.6 ± 1.6
x1 = 0.5266 | – | 1668.4 ± 1.6
x1 = 0.5491 | – | 1665.3 ± 1.7
x1 = 0.5701 | – | 1662.4 ± 1.7
x1 = 0.5912 | – | 1659.4 ± 1.7
x1 = 0.6123 | – | 1656.4 ± 1.8
x1 = 0.631 | – | 1653.7 ± 1.8
x1 = 0.656 | – | 1650.2 ± 1.8
x1 = 0.6746 | – | 1647.5 ± 1.8
x1 = 0.6953 | – | 1644.6 ± 1.9
x1 = 0.7147 | – | 1641.9 ± 1.9
x1 = 0.7344 | – | 1639.1 ± 1.9
x1 = 0.7546 | – | 1636.4 ± 1.9
x1 = 0.7797 | – | 1633 ± 2
x1 = 0.8014 | – | 1630.2 ± 2
x1 = 0.8265 | – | 1627 ± 2
x1 = 0.8497 | – | 1624.1 ± 2.1
x1 = 0.8696 | – | 1621.6 ± 2.1
x1 = 0.9029 | – | 1617.5 ± 2.2
x1 = 0.9198 | – | 1615.4 ± 2.2
x1 = 0.9259 | – | 1614.7 ± 2.2
x1 = 0.9367 | – | 1613.3 ± 2.2
x1 = 0.9484 | – | 1611.8 ± 2.2
x1 = 0.9601 | – | 1610.3 ± 2.2
x1 = 0.97 | – | 1609.1 ± 2.3
x1 = 0.9804 | – | 1607.7 ± 2.3
x1 = 0.9884 | – | 1606.6 ± 2.3
x1 = 0.9943 | – | 1605.8 ± 2.3
x1 = 1 | – | 1605 ± 2.3
